Patent US20120232069A1, “PROCESS FOR PREPARING EFAVIRENZ POLYMORPH” (HETERO RESEARCH FOUNDATION, priority 2008, published 2012)

Assay: Hygroscopicity: increase of water content on storage at 25° C. under relative humidity of 60%
Type: physicochemical
Details: six months
Procedure: Thus, for example, water content of crystalline form H1 produced according to the present invention is increased by 0.2% in six months at the temperature of 25° C. under relative humidity of 60%. Crystalline form H1 obtained according to the present invention typically has the water content of 2.5-8% by weight of the product obtained, more preferably 3-7% by weight, still more preferably 4-6% by weight as determined by Karl fisher method.

| increase of water content on storage | SMILES |
| --- | --- |
| 0.2% | O=C1Nc2ccc(Cl)cc2[C@@](C#CC2CC2)(C(F)(F)F)O1 [crystalline form H1 produced according to the present invent] [(4S)-6-chloro-4-(cyclopropylethynyl)-1,4-dihydro-4-(trifluoromethyl)-2H-3,1-benzoxazin-2-one] |
| 2.37% | O=C1Nc2ccc(Cl)cc2[C@@](C#CC2CC2)(C(F)(F)F)O1 [crystalline form H1 disclosed in WO 2006/018853] [(4S)-6-chloro-4-(cyclopropylethynyl)-1,4-dihydro-4-(trifluoromethyl)-2H-3,1-benzoxazin-2-one] |
